The record followed here is PubChem BioAssay AID330 (DTP/NCI, 2004).

“And” between values parts separate entries of the source, which are not always exact repeats. Equal entries are not always repeated. Toxic doses and inconclusive results are not listed.

The subject of the assay is P388 leukemia ip, CD2F1 mice, survival T/C. Description: NCI In Vivo Anticancer Drug Screen. Data for tumor model P388 Leukemia (intraperitoneal) in CD2F1 (CDF1) mice. The settings on record: endpoint: median survival time, higher = longer survival. An outline of the steps: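 Mice carrying the transplanted tumor received test compound or vehicle. Survival was recorded in each group, and the value is the treated-group measurement divided by that of the vehicle-treated control group.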

The mark [1] stands for this setting: dose: 6.25 mg/kg/injection, schedule: Q01DX009 (ip), vehicle: saline with Tween-80.
Setting [2] is: dose: 12.5 mg/kg/injection, schedule: Q01DX009 (ip), vehicle: saline with Tween-80.
[3] abbreviates: dose: 25.0 mg/kg/injection, schedule: Q01DX009 (ip), vehicle: saline with Tween-80.
Setting [4] is: dose: 100.0 mg/kg/injection, schedule: Q01DX009 (ip), vehicle: saline with Tween-80.
Where [5] appears, read: dose: 12.5 mg/kg/injection, schedule: Q04DX003 (ip), vehicle: saline.
Where [6] appears, read: dose: 25.0 mg/kg/injection, schedule: Q04DX003 (ip), vehicle: saline.
Where [7] appears, read: dose: 200.0 mg/kg/injection, schedule: Q01DX009 (ip), vehicle: saline with Tween-80.
The mark [8] stands for this setting: dose: 1.56 mg/kg/injection, schedule: Q01DX009 (ip), vehicle: saline with Tween-80.
Where [9] appears, read: dose: 50.0 mg/kg/injection, schedule: Q01DX009 (ip), vehicle: saline with Tween-80.
Where [10] appears, read: dose: 12.5 mg/kg/injection, schedule: Q01DX009 (ip), vehicle: saline.
[11] abbreviates: dose: 50.0 mg/kg/injection, schedule: Q01DX009 (ip), vehicle: Klucel (hydroxypropylcellulose) (HPC).
Where [12] appears, read: dose: 100.0 mg/kg/injection, schedule: Q01DX009 (ip), vehicle: Klucel (hydroxypropylcellulose) (HPC).
[13] abbreviates: dose: 200.0 mg/kg/injection, schedule: Q01DX009 (ip), vehicle: Klucel (hydroxypropylcellulose) (HPC).
[14] abbreviates: dose: 100.0 mg/kg/injection, schedule: Q04DX003 (ip), vehicle: saline with Tween-80.
Setting [15] is: dose: 200.0 mg/kg/injection, schedule: Q04DX003 (ip), vehicle: saline with Tween-80.
Where [16] appears, read: dose: 400.0 mg/kg/injection, schedule: Q04DX003 (ip), vehicle: saline with Tween-80.
The mark [17] stands for this setting: dose: 25.0 mg/kg/injection, schedule: Q01DX009 (ip), vehicle: Klucel (hydroxypropylcellulose) (HPC).

As to `CSC(=S)N1CCN(C(=S)SC)C1=O`, the T/C (dose: 50.0 mg/kg/injection, schedule: Q01DX005 (ip), vehicle: Klucel (hydroxypropylcellulose) (HPC)) is 108 % of control; the T/C (dose: 100.0 mg/kg/injection, schedule: Q01DX005 (ip), vehicle: Klucel (hydroxypropylcellulose) (HPC)) is 96 % of control; the T/C (dose: 200.0 mg/kg/injection, schedule: Q01DX005 (ip), vehicle: Klucel (hydroxypropylcellulose) (HPC)) is 91 % of control.
Regarding `OCC1OC(n2nc(Cl)c3ccccc32)C(O)C1O` (stereo not drawn), the T/C runs as follows: under setting [1], 102 % of control; under setting [2], 98 % of control; under setting [3], 94 % of control; (dose: 32.0 mg/kg/injection, schedule: Q01DX002 (ip), vehicle: saline with Tween-80) 104 % of control; (dose: 64.0 mg/kg/injection, schedule: Q01DX002 (ip), vehicle: saline with Tween-80) 106 % of control and 107 % of control; under setting [4], 91 % of control. Also, the T/C (dose: 128.0 mg/kg/injection, schedule: Q01DX002 (ip), vehicle: saline with Tween-80) was 106 % of control and 107 % of control.
Consider `COc1cccc2c1C(=O)c1c(O)c3c(c(O)c1C2=O)C[C@@](O)(/C(C)=N/NC(=O)c1cccs1)C[C@@H]3OC1CC(N)C(O)C(C)O1` (stereo partly drawn), for which the T/C runs as follows: (dose: 1.56 mg/kg/injection, schedule: Q04DX003 (ip), vehicle: saline) 169 % of control; (dose: 3.13 mg/kg/injection, schedule: Q04DX003 (ip), vehicle: saline) 178 % of control; (dose: 6.25 mg/kg/injection, schedule: Q04DX003 (ip), vehicle: saline) 191 % of control; under setting [5], 206 % of control; under setting [6], 104 % of control.
`c1ccc2nc(NCCSSCCNc3cnc4ccccc4n3)cnc2c1`: the T/C is 86 % of control under setting [4]; 86 % of control under setting [7]; 86 % of control (dose: 400.0 mg/kg/injection, schedule: Q01DX009 (ip), vehicle: saline with Tween-80).
On to `CCN(CC)CCN1C(=O)c2cccc3cc(N)cc(c23)C1=O`, for which the T/C runs as follows: under setting [8], 101 % of control; (dose: 1.6 mg/kg/injection, schedule: Q01DX009 (ip), vehicle: saline with Tween-80) 100 % of control; (dose: 3.12 mg/kg/injection, schedule: Q01DX009 (ip), vehicle: saline with Tween-80) 98 % of control; (dose: 3.2 mg/kg/injection, schedule: Q01DX009 (ip), vehicle: saline with Tween-80) 108 % of control; under setting [1], 98 % of control; (dose: 6.5 mg/kg/injection, schedule: Q01DX009 (ip), vehicle: saline with Tween-80) 107 % of control and 123 % of control. Moreover, the T/C is 107 % of control under setting [2]; 121 % of control and 123 % of control (dose: 13.1 mg/kg/injection, schedule: Q01DX009 (ip), vehicle: saline with Tween-80); 114 % of control under setting [3]; 124 % of control (dose: 26.0 mg/kg/injection, schedule: Q01DX009 (ip), vehicle: saline with Tween-80); 160 % of control under setting [9].
With `COc1cc(NCCCCC(C)N)c2nccc(C)c2c1` (stereo not drawn), the T/C is 94 % of control under setting [10] and 92 % of control (dose: 25.0 mg/kg/injection, schedule: Q01DX009 (ip), vehicle: saline).
Regarding `C=Cn1ccnc1C.C=Cn1ccnc1C.CC(=O)CC(C)=O.CC(=O)CC(C)=O.[Co]`, the T/C was 117 % of control and 95 % of control under setting [5]; 102 % of control and 117 % of control under setting [6]; 105 % of control and 123 % of control (dose: 50.0 mg/kg/injection, schedule: Q04DX003 (ip), vehicle: saline).
Regarding `Cc1cc(=O)n2c(nc3cc(Cl)ccc32)s1`, the T/C is, setting by setting: under setting [11], 103 % of control; under setting [12], 95 % of control; under setting [13], 89 % of control.
As to `CCc1cc(C=C2C(=O)c3ccccc3C2=O)cc(CC)c1O`, the T/C is, setting by setting: (dose: 100.0 mg/kg/injection, schedule: Q04DX002 (ip), vehicle: saline) 99 % of control; (dose: 200.0 mg/kg/injection, schedule: Q04DX002 (ip), vehicle: saline) 99 % of control; (dose: 400.0 mg/kg/injection, schedule: Q04DX002 (ip), vehicle: saline) 99 % of control.
For the compound `NNC(=O)CCc1ccccc1Br`, the T/C runs as follows: under setting [9], 100 % of control and 90 % of control; (dose: 50.0 mg/kg/injection, schedule: Q04DX003 (ip), vehicle: saline with Tween-80) 104 % of control; under setting [4], 100 % of control; under setting [14], 90 % of control; under setting [7], 95 % of control; under setting [15], 90 % of control.
Take `Cc1nc(CC#N)c(C(N)=O)c(Nc2ccccc2)n1`: the T/C (dose: 100.0 mg/kg/injection, schedule: Q01DX001 (ip), vehicle: saline with Tween-80) is 92 % of control; the T/C (dose: 200.0 mg/kg/injection, schedule: Q01DX001 (ip), vehicle: saline with Tween-80) is 92 % of control; the T/C (dose: 400.0 mg/kg/injection, schedule: Q01DX001 (ip), vehicle: saline with Tween-80) is 111 % of control.
On to `COC(=O)c1sc(N2CCCC2)nc1N`, for which the T/C (dose: 60.0 mg/kg/injection, schedule: Q01DX005 (ip), vehicle: saline with Tween-80) is 102 % of control; the T/C (dose: 120.0 mg/kg/injection, schedule: Q01DX005 (ip), vehicle: saline with Tween-80) is 99 % of control; the T/C (dose: 240.0 mg/kg/injection, schedule: Q01DX005 (ip), vehicle: saline with Tween-80) is 97 % of control.
Take `CCOC(=O)/C=C(\Cl)C(=O)OCC`: the T/C was 95 % of control under setting [8]; 101 % of control (dose: 1.56 mg/kg/injection, schedule: Q01DX009 (ip), vehicle: saline); 104 % of control and 110 % of control (dose: 3.13 mg/kg/injection, schedule: Q01DX009 (ip), vehicle: saline with Tween-80); 103 % of control (dose: 3.13 mg/kg/injection, schedule: Q01DX009 (ip), vehicle: saline); 111 % of control and 123 % of control under setting [1]; 112 % of control (dose: 6.25 mg/kg/injection, schedule: Q01DX009 (ip), vehicle: saline). The T/C was 111 % of control under setting [2] and 118 % of control under setting [10].
Consider `CN(c1ccccc1)C1CS(=O)(=O)OC2=C1CN(Cc1ccccc1)CC2` (stereo not drawn), for which the T/C was 99 % of control under setting [14], 94 % of control under setting [15] and 90 % of control under setting [16].
Take `COC(=O)/C=C(/C(=O)OC)N(C)Cc1ccccc1`: the T/C was 97 % of control under setting [17]; 104 % of control under setting [11]; 98 % of control under setting [12]; 99 % of control under setting [14]; 101 % of control under setting [13]; 99 % of control under setting [15]. The T/C under setting [16] was 101 % of control.
In the case of `N#CC1(C#N)C2C=CC(C3CC=CC32)C1(C#N)C#N` (stereo not drawn), the T/C by setting is: (dose: 3.13 mg/kg/injection, schedule: Q01DX009 (ip), vehicle: Klucel (hydroxypropylcellulose) (HPC)) 106 % of control; (dose: 6.25 mg/kg/injection, schedule: Q01DX009 (ip), vehicle: Klucel (hydroxypropylcellulose) (HPC)) 98 % of control; (dose: 12.5 mg/kg/injection, schedule: Q01DX009 (ip), vehicle: Klucel (hydroxypropylcellulose) (HPC)) 110 % of control; under setting [17], 108 % of control.
As to `Cc1ccc(C)c(C(O)(c2cc(C)ccc2C)C2(O)CCCCC2)c1`, the T/C was 106 % of control (dose: 50.0 mg/kg/injection, schedule: Q01DX005 (ip), vehicle: saline with Tween-80); 103 % of control (dose: 100.0 mg/kg/injection, schedule: Q01DX005 (ip), vehicle: saline with Tween-80); 97 % of control (dose: 200.0 mg/kg/injection, schedule: Q01DX005 (ip), vehicle: saline with Tween-80).
On to `c1csc(NC(Nc2nccs2)C23CC4CC(CC(C4)C2)C3)n1`, for which the T/C was 96 % of control under setting [9], 101 % of control under setting [4] and 100 % of control under setting [7].
Consider `CCCCCCCCCCCCN1C(=O)[N+](C)(C)N=C1[O-]`, for which the T/C reads like this: (dose: 100.0 mg/kg/injection, schedule: Q04DX003 (ip), vehicle: saline) 113 % of control; (dose: 200.0 mg/kg/injection, schedule: Q04DX003 (ip), vehicle: saline) 105 % of control; (dose: 400.0 mg/kg/injection, schedule: Q04DX003 (ip), vehicle: saline) 105 % of control.
